Assay results as given in the NIST ThermoML archive (doi:10.1016/j.fluid.2007.09.028).
Numbers after ± are expanded uncertainties.

Experiment: xn = mol fraction of the nth substance listed
Settings: 101 kPa, Liquid

## Clc1ccccc1 [chlorobenzene] + CCCCCO
288.15 K, x2 = 0
  mass density: 1111.81 ± 0.3 kg/m3
288.15 K, x2 = 0.0495
  mass density: 1096.2 ± 0.29 kg/m3
288.15 K, x2 = 0.1004
  mass density: 1080.5 ± 0.27 kg/m3
288.15 K, x2 = 0.1503
  mass density: 1065.26 ± 0.25 kg/m3
288.15 K, x2 = 0.2001
  mass density: 1050.21 ± 0.23 kg/m3
288.15 K, x2 = 0.2498
  mass density: 1035.28 ± 0.21 kg/m3
288.15 K, x2 = 0.2998
  mass density: 1020.4 ± 0.19 kg/m3
288.15 K, x2 = 0.3497
  mass density: 1005.6 ± 0.18 kg/m3
288.15 K, x2 = 0.3992
  mass density: 991.011 ± 0.19 kg/m3
288.15 K, x2 = 0.4498
  mass density: 976.171 ± 0.22 kg/m3
288.15 K, x2 = 0.5
  mass density: 961.565 ± 0.25 kg/m3
288.15 K, x2 = 0.5497
  mass density: 947.132 ± 0.28 kg/m3
288.15 K, x2 = 0.6
  mass density: 932.622 ± 0.3 kg/m3
288.15 K, x2 = 0.65
  mass density: 918.243 ± 0.34 kg/m3
288.15 K, x2 = 0.6998
  mass density: 903.925 ± 0.36 kg/m3
288.15 K, x2 = 0.7499
  mass density: 889.607 ± 0.39 kg/m3
288.15 K, x2 = 0.8001
  mass density: 875.288 ± 0.42 kg/m3
288.15 K, x2 = 0.8496
  mass density: 861.143 ± 0.45 kg/m3
288.15 K, x2 = 0.9002
  mass density: 846.722 ± 0.48 kg/m3
288.15 K, x2 = 0.95
  mass density: 832.515 ± 0.51 kg/m3
293.15 K, x2 = 0
  mass density: 1106.43 ± 0.29 kg/m3
293.15 K, x2 = 0.0495
  mass density: 1090.85 ± 0.28 kg/m3
293.15 K, x2 = 0.1004
  mass density: 1075.21 ± 0.26 kg/m3
293.15 K, x2 = 0.1503
  mass density: 1060.04 ± 0.24 kg/m3
293.15 K, x2 = 0.2001
  mass density: 1045.07 ± 0.22 kg/m3
293.15 K, x2 = 0.2498
  mass density: 1030.21 ± 0.2 kg/m3
293.15 K, x2 = 0.2998
  mass density: 1015.41 ± 0.18 kg/m3
293.15 K, x2 = 0.3497
  mass density: 1000.69 ± 0.17 kg/m3
293.15 K, x2 = 0.3992
  mass density: 986.186 ± 0.2 kg/m3
293.15 K, x2 = 0.4498
  mass density: 971.436 ± 0.22 kg/m3
293.15 K, x2 = 0.5
  mass density: 956.92 ± 0.25 kg/m3
293.15 K, x2 = 0.5497
  mass density: 942.578 ± 0.28 kg/m3
293.15 K, x2 = 0.6
  mass density: 928.159 ± 0.31 kg/m3
293.15 K, x2 = 0.65
  mass density: 913.875 ± 0.34 kg/m3
293.15 K, x2 = 0.6998
  mass density: 899.658 ± 0.37 kg/m3
293.15 K, x2 = 0.7499
  mass density: 885.436 ± 0.4 kg/m3
293.15 K, x2 = 0.8001
  mass density: 871.223 ± 0.43 kg/m3
293.15 K, x2 = 0.8496
  mass density: 857.181 ± 0.46 kg/m3
293.15 K, x2 = 0.9002
  mass density: 842.865 ± 0.49 kg/m3
293.15 K, x2 = 0.95
  mass density: 828.762 ± 0.52 kg/m3
298.15 K, x2 = 0
  mass density: 1101.04 ± 0.28 kg/m3
298.15 K, x2 = 0.0495
  mass density: 1085.48 ± 0.27 kg/m3
298.15 K, x2 = 0.1004
  mass density: 1069.9 ± 0.25 kg/m3
298.15 K, x2 = 0.1503
  mass density: 1054.8 ± 0.23 kg/m3
298.15 K, x2 = 0.2001
  mass density: 1039.9 ± 0.21 kg/m3
298.15 K, x2 = 0.2498
  mass density: 1025.13 ± 0.19 kg/m3
298.15 K, x2 = 0.2998
  mass density: 1010.4 ± 0.18 kg/m3
298.15 K, x2 = 0.3497
  mass density: 995.77 ± 0.17 kg/m3
298.15 K, x2 = 0.3992
  mass density: 981.346 ± 0.2 kg/m3
298.15 K, x2 = 0.4498
  mass density: 966.685 ± 0.23 kg/m3
298.15 K, x2 = 0.5
  mass density: 952.254 ± 0.26 kg/m3
298.15 K, x2 = 0.5497
  mass density: 938.003 ± 0.29 kg/m3
298.15 K, x2 = 0.6
  mass density: 923.676 ± 0.32 kg/m3
298.15 K, x2 = 0.65
  mass density: 909.486 ± 0.35 kg/m3
298.15 K, x2 = 0.6998
  mass density: 895.367 ± 0.38 kg/m3
298.15 K, x2 = 0.7499
  mass density: 881.246 ± 0.41 kg/m3
298.15 K, x2 = 0.8001
  mass density: 867.134 ± 0.43 kg/m3
298.15 K, x2 = 0.8496
  mass density: 853.196 ± 0.46 kg/m3
298.15 K, x2 = 0.9002
  mass density: 838.986 ± 0.49 kg/m3
298.15 K, x2 = 0.95
  mass density: 824.99 ± 0.52 kg/m3
303.15 K, x2 = 0
  mass density: 1095.64 ± 0.28 kg/m3
303.15 K, x2 = 0.0495
  mass density: 1080.11 ± 0.26 kg/m3
303.15 K, x2 = 0.1004
  mass density: 1064.57 ± 0.24 kg/m3
303.15 K, x2 = 0.1503
  mass density: 1049.54 ± 0.22 kg/m3
303.15 K, x2 = 0.2001
  mass density: 1034.71 ± 0.2 kg/m3
303.15 K, x2 = 0.2498
  mass density: 1020.02 ± 0.19 kg/m3
303.15 K, x2 = 0.2998
  mass density: 1005.37 ± 0.17 kg/m3
303.15 K, x2 = 0.3497
  mass density: 990.822 ± 0.18 kg/m3
303.15 K, x2 = 0.3992
  mass density: 976.483 ± 0.21 kg/m3
303.15 K, x2 = 0.4498
  mass density: 961.906 ± 0.24 kg/m3
303.15 K, x2 = 0.5
  mass density: 947.565 ± 0.27 kg/m3
303.15 K, x2 = 0.5497
  mass density: 933.402 ± 0.29 kg/m3
303.15 K, x2 = 0.6
  mass density: 919.168 ± 0.32 kg/m3
303.15 K, x2 = 0.65
  mass density: 905.07 ± 0.35 kg/m3
303.15 K, x2 = 0.6998
  mass density: 891.05 ± 0.38 kg/m3
303.15 K, x2 = 0.7499
  mass density: 877.028 ± 0.41 kg/m3
303.15 K, x2 = 0.8001
  mass density: 863.017 ± 0.44 kg/m3
303.15 K, x2 = 0.8496
  mass density: 849.186 ± 0.47 kg/m3
303.15 K, x2 = 0.9002
  mass density: 835.082 ± 0.5 kg/m3
303.15 K, x2 = 0.95
  mass density: 821.195 ± 0.53 kg/m3
308.15 K, x2 = 0
  mass density: 1090.23 ± 0.27 kg/m3
308.15 K, x2 = 0.0495
  mass density: 1074.71 ± 0.25 kg/m3
308.15 K, x2 = 0.1004
  mass density: 1059.22 ± 0.23 kg/m3
308.15 K, x2 = 0.1503
  mass density: 1044.25 ± 0.21 kg/m3
308.15 K, x2 = 0.2001
  mass density: 1029.5 ± 0.2 kg/m3
308.15 K, x2 = 0.2498
  mass density: 1014.88 ± 0.18 kg/m3
308.15 K, x2 = 0.2998
  mass density: 1000.32 ± 0.16 kg/m3
308.15 K, x2 = 0.3497
  mass density: 985.847 ± 0.19 kg/m3
308.15 K, x2 = 0.3992
  mass density: 971.589 ± 0.21 kg/m3
308.15 K, x2 = 0.4498
  mass density: 957.097 ± 0.24 kg/m3
308.15 K, x2 = 0.5
  mass density: 942.839 ± 0.27 kg/m3
308.15 K, x2 = 0.5497
  mass density: 928.768 ± 0.3 kg/m3
308.15 K, x2 = 0.6
  mass density: 914.627 ± 0.33 kg/m3
308.15 K, x2 = 0.65
  mass density: 900.622 ± 0.36 kg/m3
308.15 K, x2 = 0.6998
  mass density: 886.702 ± 0.39 kg/m3
308.15 K, x2 = 0.7499
  mass density: 872.777 ± 0.42 kg/m3
308.15 K, x2 = 0.8001
  mass density: 858.866 ± 0.45 kg/m3
308.15 K, x2 = 0.8496
  mass density: 845.143 ± 0.47 kg/m3
308.15 K, x2 = 0.9002
  mass density: 831.149 ± 0.5 kg/m3
308.15 K, x2 = 0.95
  mass density: 817.369 ± 0.53 kg/m3
313.15 K, x2 = 0
  mass density: 1084.82 ± 0.26 kg/m3
313.15 K, x2 = 0.0495
  mass density: 1069.32 ± 0.24 kg/m3
313.15 K, x2 = 0.1004
  mass density: 1053.86 ± 0.22 kg/m3
313.15 K, x2 = 0.1503
  mass density: 1038.95 ± 0.2 kg/m3
313.15 K, x2 = 0.2001
  mass density: 1024.27 ± 0.19 kg/m3
313.15 K, x2 = 0.2498
  mass density: 1009.72 ± 0.17 kg/m3
313.15 K, x2 = 0.2998
  mass density: 995.245 ± 0.17 kg/m3
313.15 K, x2 = 0.3497
  mass density: 980.857 ± 0.2 kg/m3
313.15 K, x2 = 0.3992
  mass density: 966.679 ± 0.22 kg/m3
313.15 K, x2 = 0.4498
  mass density: 952.274 ± 0.25 kg/m3
313.15 K, x2 = 0.5
  mass density: 938.086 ± 0.28 kg/m3
313.15 K, x2 = 0.5497
  mass density: 924.119 ± 0.31 kg/m3
313.15 K, x2 = 0.6
  mass density: 910.077 ± 0.34 kg/m3
313.15 K, x2 = 0.65
  mass density: 896.149 ± 0.36 kg/m3
313.15 K, x2 = 0.6998
  mass density: 882.307 ± 0.39 kg/m3
313.15 K, x2 = 0.7499
  mass density: 868.496 ± 0.42 kg/m3
313.15 K, x2 = 0.8001
  mass density: 854.684 ± 0.45 kg/m3
313.15 K, x2 = 0.8496
  mass density: 841.079 ± 0.48 kg/m3
313.15 K, x2 = 0.9002
  mass density: 827.194 ± 0.51 kg/m3
313.15 K, x2 = 0.95
  mass density: 813.521 ± 0.54 kg/m3
